Measurements: PMC5859250, “Contribution of transformation products towards the total herbicide toxicity to tropical marine organisms” (Scientific Reports, 2018)
In brackets after ≈: the same amount, converted by molar mass. Entries after “also recorded” stand apart in the source; their conditions may differ.

What was measured:
Symbiodinium sp. = test: Microalgal PAM fluorometry assay, inhibition of ∆F/Fm′ (24 h, 96-well plate); assay type: cell-based; settings: for LOEC, effect on ∆F/Fm′ / NOEC, effect on ∆F/Fm′: pure transformation product, ANOVA p < 0.05
From the text: (§1) Microalgae play a critical role in the marine food web and have been used in a number of sensitive assays for the assessment of toxicity of both herbicides and their transformation products[13],[16],[60]. High throughput 96 well plate designs allow for increased replication and a wide range of concentrations especially when paired with pulse amplitude modulation (PAM) fluorometry[50],[61]. PAM fluorometry measures chlorophyll fluorescence and can be used to calculate inhibitions of effective quantum yield ∆F/Fm′, which is proportional to reduced photosynthetic efficiency[62] and growth in microalgae[63] and can be plotted against toxicant concentrations to derive concentrations that inhibit ∆F/Fm′ by 10, 20 and 50% (IC10, IC20 and IC50). In the present study the green algae (Dunaliella sp.) and coral symbiont (Symbiodinium sp.) were exposed to herbicides and aged herbicide solutions for 24 h in a 96-well plate format. A Maxi-Imaging-PAM (I-PAM) (Walz, GmbH Germany) was used to measure inhibition of ∆F/Fm′ using settings provided previously[36] and below.
(§2) Symbiodinium cells were isolated from coral by air blasting branches of Acropora tenuis colonies collected (collected under the permit G10-33440.1) at 2–5 m depth in Nelly Bay, Magnetic Island, GBR[36]. Symbiodinium cells were inoculated into sterile IMK growing media, the culture purified, DNA extracted, and Clade C1 identified as published previously[64],[65]. Cultures were maintained at 26 °C, 60 µE PAR, 14:10 light:dark photoperiod inside environmental chambers (Steridium e500). The Dunaliella sp. (CS-353) (Chlorophyceae) was obtained from the CSIRO Collection of Living Microalgae (CCLM). The algae was subcultured and grown in F2 media. For the toxicology assays, an exponentially growing culture was employed[63] and density adjusted by hemocytometry under 10× magnification. Day 7 sub-cultures were used throughout the experiment.
(§3) Herbicide solutions were delivered into each treatment plate using a Perkin Elmer Janus liquid handling system. Each well of the black 96-well plates (Perkin Elmer) received 100 µl herbicide solution as well as 100 µl of algal suspension (added via multi-channel pipette) and the solution was gently mixed. […] Each plate included a 3 µg l^−1 positive diuron control (n = 4) to confirm consistent sensitivities among the replicate algal subcultures. Treatments positions were randomised across the plates in duplicate[50],[61],[66]. Symbiodinium culture plates were incubated over a 12:12 h light:dark cycle at 26 °C and 60–70 µmol photons m^−2 s^−1 and Dunaliella sp. Plates incubated at: 26 °C and 130 µmol photons m^−2 s^−1. Microalgae were exposed for 24 h prior to PAM measurements. Samples were subjected to the 50 µmol photons m^−2 s^−1 actinic light for 1 min prior to measurement in the Maxi-IPAM (Actinic light = 1, ML = 10, ML frequency = 8, gain = 2 and damping = 1).
(§4) The model was constrained by applying a lower limit of 0% inhibition and all curves were tested for normality of the residuals and a replicate test was applied to assess the goodness of fit[36]. The probability that ICX values generated by the logistic curves were statistically different between parent and aged herbicide solutions was tested by applying the F test in Graph Pad Prism v6. ICXs were considered different when p < 0.05. Where inhibition data could not be fitted to logistic curves, one-way analysis of variance (ANOVA) was performed to identify treatments which caused significant (p < 0.05) inhibition comparison with control treatments (NCSS v9, Utah, USA). The larval prawn experimental data was arcsine square root transformed prior to statistical analysis.

Dunaliella sp. = test: as above; assay type: cell-based; settings: for LOEC, effect on ∆F/Fm′ / NOEC, effect on ∆F/Fm′: pure transformation product, ANOVA p < 0.05
From the text: as §1, §2, §3, §4

Brachionus plicatilis = tested on: Brachionus plicatilis; parameters: method as in PMID 1722733; settings: cited from earlier work
Brachionus calyciflorus = tested on: Brachionus calyciflorus; parameters: method as in PMID 1722733; settings: cited from earlier work
Nephroselmis pyriformis = tested on: Nephroselmis pyriformis; parameters: method as in PMID 20800855; settings: cited from earlier work
Cylindrotheca closterium = tested on: Cylindrotheca closterium; parameters: method as in PMID 20800855; settings: cited from earlier work
[1] = tested on: Phaeodactylum tricornutum; parameters: method as in PMID 20800855; settings: cited from earlier work
Navicula sp. = tested on: Navicula sp.; parameters: method as in PMID 20800855; settings: cited from earlier work
Hyalella azteca = tested on: Hyalella azteca; parameters: method as in PMID 19533344; settings: cited from earlier work
Diporeia spp. = tested on: Diporeia spp.; parameters: method as in PMID 19533344; settings: cited from earlier work
[2] = 24 h, read-out: IC20 parent (inhibition of ∆F/Fm′ by 20%)

## Nc1ccc(Cl)c(Cl)c1 [3,4-DCA, 3,4-dichloroaniline]
Symbiodinium sp.; Symbiodinium sp., concentrations up to 273 µg l^−1
  Inhibition of ∆F/Fm′ (in words): no significant inhibition; also recorded: did not inhibit ∆F/Fm′
Symbiodinium sp.; Symbiodinium sp.
  LOEC, effect on ∆F/Fm′: >273.41 µg/L
  NOEC, effect on ∆F/Fm′: 273.41 µg/L
Dunaliella sp.; Dunaliella sp., concentrations up to 273 µg l^−1
  Inhibition of ∆F/Fm′ (in words): no significant inhibition; also recorded: did not inhibit ∆F/Fm′
Dunaliella sp.; Dunaliella sp.
  LOEC, effect on ∆F/Fm′: >273.41 µg/L
  NOEC, effect on ∆F/Fm′: 273.41 µg/L
Brachionus plicatilis
  LC50: ~ 60 mg l^−1
Brachionus calyciflorus
  LC50: ~ 60 mg l^−1

## CC(C)Nc1nc(N)nc(Cl)n1 [DEA, desethylatrazine]
Nephroselmis pyriformis
  IC10: 0.0266 µg/mL (≈ 0.142 µM)
Symbiodinium sp.; [2]
  IC20: 0.218 µg/mL (≈ 1.16 µM)
Symbiodinium sp.; Symbiodinium sp., 24 h, pure compound
  IC10 parent (inhibition of ∆F/Fm′ by 10%): 103 (93–115) µg l^−1
Symbiodinium sp.; Symbiodinium sp., evident at 84 µg l^−1
  Inhibition of ∆F/Fm′: 9–35%
Symbiodinium sp.; Symbiodinium sp.
  LOEC, effect on ∆F/Fm′: 83.68 µg/L
  NOEC, effect on ∆F/Fm′: 55.63 µg/L
Dunaliella sp.; [2]
  IC20: 0.31 µg/mL (≈ 1.65 µM)
Dunaliella sp.; Dunaliella sp., 24 h, pure compound
  IC10 parent (inhibition of ∆F/Fm′ by 10%): 157 (142–173) µg l^−1
Dunaliella sp.; Dunaliella sp., evident at 56 µg l^−1
  Inhibition of ∆F/Fm′: 9–35%
Dunaliella sp.; Dunaliella sp.
  LOEC, effect on ∆F/Fm′: 55.63 µg/L
  NOEC, effect on ∆F/Fm′: 33.30 µg/L
Cylindrotheca closterium
  IC10: 0.102 µg/mL (≈ 0.544 µM)
[1]
  IC10: 0.046 µg/mL (≈ 0.245 µM)
Navicula sp.
  IC10: 0.111 µg/mL (≈ 0.592 µM)

## CCNc1nc(N)nc(Cl)n1 [DIA, desisopropylatrazine]
Symbiodinium sp.; Symbiodinium sp., 458 µg l^−1
  Inhibition of ∆F/Fm′: < 8%
Symbiodinium sp.; Symbiodinium sp.
  LOEC, effect on ∆F/Fm′: >458.31 µg/L
  NOEC, effect on ∆F/Fm′: 458.31 µg/L
Dunaliella sp.; Dunaliella sp., 458 µg l^−1, significant (ANOVA, p < 0.05)
  Inhibition of ∆F/Fm′: < 8%
Dunaliella sp.; Dunaliella sp.
  LOEC, effect on ∆F/Fm′: 458.31 µg/L
  NOEC, effect on ∆F/Fm′: 148.97 µg/L
Hyalella azteca
  96-hour LC50: > 3 µg/mL
Diporeia spp.
  96-hour LC50: > 3 µg/mL
